In US8309552B2, “Immunomodulating heterocyclic compounds” (Medigene AG, priority 2003, dated 2012) one finds EC50 data, which are given here for 52 compounds.

Where only a bound is given, the exact number is not on record here.

The target in this assay is T1, CD80-CD28 interaction (Homo sapiens, UniProt P33681).
T1 sequence (P33681 35-242 limits assumed): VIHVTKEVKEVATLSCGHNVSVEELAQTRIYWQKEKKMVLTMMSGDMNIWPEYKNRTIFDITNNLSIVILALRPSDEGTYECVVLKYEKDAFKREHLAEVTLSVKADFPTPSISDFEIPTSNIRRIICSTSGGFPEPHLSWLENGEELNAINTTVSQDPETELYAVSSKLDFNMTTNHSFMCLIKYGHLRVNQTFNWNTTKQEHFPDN
Kind of assay: Homogenous Time Resolved Fluorescence (HTRF) assay, cell free. The assay is classed as binding. The note with it: cell free HTRF assay; concentration series 100 μM-1.7 nM; 4 hours at room temperature; read-out: Activity (EC50 in the HTRF assay). Summed up: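 Europium and APC labels were linked through antibodies to CD28 and CD80 fusion proteins. Compounds were tested at 100 μM-1.7 nM for 4 h at room temperature in 50 mM Tris-HCl, 150 mM NaCl pH7.8, 0.1% BSA. Emission read at 665 and 615 nm (excitation 340 nm); non-specific signal measured with C215 Fab in place of CD80; EC50 reported in bands.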
On to `NCCCCCCNC(=O)c1ccc(-n2[nH]c3c(nnc4ccccc43)c2=O)cc1` [Example 271], for which the EC50 was less than 1000 nM. The result for `O=C(NCCC1=CCCCC1)c1ccc(-n2[nH]c3c(nnc4ccccc43)c2=O)cc1` [Example 272] reads greater than 10000 nM; that for `CCCCCCCCCCCCOCCCNC(=O)c1ccc(-n2[nH]c3c(nnc4ccccc43)c2=O)cc1` [Example 273], greater than 10000 nM.

For `CSCCCNC(=O)c1ccc(-n2[nH]c3c(nnc4ccccc43)c2=O)cc1` [Example 274], the EC50 was less than 1000 nM. As for `CCOC(=O)C1CCCC1NC(=O)c1ccc(-n2[nH]c3c(nnc4ccccc43)c2=O)cc1` (stereo not shown) [Example 275], the figure is 1000 to 10000 nM; as for `CCC(COCc1ccccc1)NC(=O)c1ccc(-n2[nH]c3c(nnc4ccccc43)c2=O)cc1` (stereo not shown) [Example 276], 1000 to 10000 nM; as for `O=C(NC1CCOC1=O)c1ccc(-n2[nH]c3c(nnc4ccccc43)c2=O)cc1` (stereo not shown) [Example 277], 1000 to 10000 nM. Regarding `O=C(NC1CN2CCC1CC2)c1ccc(-n2[nH]c3c(nnc4ccccc43)c2=O)cc1` (stereo not shown) [Example 278], the EC50 was less than 1000 nM. With `CCCCNCCNC(=O)c1ccc(-n2[nH]c3c(nnc4ccccc43)c2=O)cc1` [Example 279], the concentration giving a half-maximal response (EC50) is less than 1000 nM. `CCN(CC)CCNCCNC(=O)c1ccc(-n2[nH]c3c(nnc4ccccc43)c2=O)cc1` [Example 280]: the EC50 is less than 1000 nM. Consider `O=C(NCCNCc1ccccc1)c1ccc(-n2[nH]c3c(nnc4ccccc43)c2=O)cc1` [Example 281], for which the EC50 was less than 1000 nM. As for `CCNC(=O)Nc1ccc(-n2[nH]c3c(nnc4ccccc43)c2=O)cc1` [Example 282], the EC50 was less than 1000 nM. The result for `CC(C)=CCC/C(C)=C/CNC(=O)Nc1ccc(-n2[nH]c3c(nnc4ccccc43)c2=O)cc1` [Example 283] reads greater than 10000 nM. The result for `O=C(NCc1cccc(F)c1)Nc1ccc(-n2[nH]c3c(nnc4ccccc43)c2=O)cc1` [Example 284] reads greater than 10000 nM; that for `O=C(NCCc1cnc[nH]1)Nc1ccc(-n2[nH]c3c(nnc4ccccc43)c2=O)cc1` [Example 285], less than 1000 nM. `O=C(NCc1ccc2c(c1)OCO2)Nc1ccc(-n2[nH]c3c(nnc4ccccc43)c2=O)cc1` [Example 286]: the EC50 was greater than 10000 nM. The result for `O=C(NCCN1CCNC1=O)Nc1ccc(-n2[nH]c3c(nnc4ccccc43)c2=O)cc1` [Example 287] reads less than 1000 nM. Turning to `O=C(NCCc1cccs1)Nc1ccc(-n2[nH]c3c(nnc4ccccc43)c2=O)cc1` [Example 289], the EC50 is 1000 to 10000 nM. On to `O=C(NCC1CCNCC1)Nc1ccc(-n2[nH]c3c(nnc4ccccc43)c2=O)cc1` [Example 290], for which the EC50 was less than 1000 nM. As for `O=C(NCCCc1ccccc1)Nc1ccc(-n2[nH]c3c(nnc4ccccc43)c2=O)cc1` [Example 291], the figure is greater than 10000 nM; as for `O=C(Nc1ccc(-n2[nH]c3c(nnc4ccccc43)c2=O)cc1)NC1CCCC1OCc1ccccc1` (stereo not shown) [Example 292], greater than 10000 nM. The result for `O=C(Nc1ccc(-n2[nH]c3c(nnc4ccccc43)c2=O)cc1)Nc1nc2ccccc2s1` [Example 293] reads greater than 10000 nM.

Take `CC(C)(C)OC(=O)N1CCN(CCNC(=O)Nc2ccc(-n3[nH]c4c(nnc5ccccc54)c3=O)cc2)CC1` [Example 294]: the EC50 lay in the range of 1000 to 10000 nM.

`O=C(NCc1ccc([N+](=O)[O-])cc1)Nc1ccc(-n2[nH]c3c(nnc4ccccc43)c2=O)cc1` [Example 296]: the 50% effective concentration (EC50) is greater than 10000 nM. For the compound `O=C(NCCCN1CCCC1=O)Nc1ccc(-n2[nH]c3c(nnc4ccccc43)c2=O)cc1` [Example 297], the EC50 was in the range of 1000 to 10000 nM.

`O=C(NCCCn1ccnc1)Nc1ccc(-n2[nH]c3c(nnc4ccccc43)c2=O)cc1` [Example 298]: the EC50 is less than 1000 nM. Take `O=C(Nc1ccc(-n2[nH]c3c(nnc4ccccc43)c2=O)cc1)NC1CCCCCC1` [Example 299]: the EC50 was greater than 10000 nM. Regarding `O=C(NCCN1CCNCC1)Nc1ccc(-n2[nH]c3c(nnc4ccccc43)c2=O)cc1` [Example 300], the EC50 is less than 1000 nM. As to `CC1(C)CC(NC(=O)Nc2ccc(-n3[nH]c4c(nnc5ccccc54)c3=O)cc2)CC(C)(C)N1` [Example 301], the EC50 was less than 1000 nM. As for `O=C(NCCNc1ccc([N+](=O)[O-])cn1)Nc1ccc(-n2[nH]c3c(nnc4ccccc43)c2=O)cc1` [Example 302], the figure is greater than 10000 nM; as for `CCOC(=O)N1CCC(NC(=O)Nc2ccc(-n3[nH]c4c(nnc5ccccc54)c3=O)cc2)CC1` [Example 303], greater than 10000 nM; as for `CC(CCc1ccccc1)NC(=O)Nc1ccc(-n2[nH]c3c(nnc4ccccc43)c2=O)cc1` (stereo not shown) [Example 304], greater than 10000 nM.

Regarding `COC(CNC(=O)Nc1ccc(-n2[nH]c3c(nnc4ccccc43)c2=O)cc1)OC` [Example 306], the EC50 was less than 1000 nM.

With `CCOC(CNC(=O)Nc1ccc(-n2[nH]c3c(nnc4ccccc43)c2=O)cc1)OCC` [Example 307], the EC50 is 1000 to 10000 nM.

Turning to `CCC(C)CNC(=O)Nc1ccc(-n2[nH]c3c(nnc4ccccc43)c2=O)cc1` (stereo not shown) [Example 308], the EC50 is 1000 to 10000 nM. `CCC(C)NC(=O)Nc1ccc(-n2[nH]c3c(nnc4ccccc43)c2=O)cc1` (stereo not shown) [Example 309]: the EC50 was in the range of 1000 to 10000 nM. The result for `CCN1CCCC1CNC(=O)Nc1ccc(-n2[nH]c3c(nnc4ccccc43)c2=O)cc1` (stereo not shown) [Example 310] reads less than 1000 nM. In the case of `O=C(NCC(F)F)c1ccc(-n2[nH]c3c(nnc4ccccc43)c2=O)cc1` [Example 311], the EC50 is less than 1000 nM.

As for `O=C(NCCC(F)(F)F)c1ccc(-n2[nH]c3c(nnc4ccccc43)c2=O)cc1` [Example 312], the EC50 was less than 1000 nM. On to `O=C(NC1C2CC3CC(C2)CC1C3)c1ccc(-n2[nH]c3c(nnc4ccccc43)c2=O)cc1` (stereo not shown) [Example 313], for which the EC50 fell in the range of 1000 to 10000 nM. For `C#CC1(NC(=O)c2ccc(-n3[nH]c4c(nnc5ccccc54)c3=O)cc2)CCCCC1` [Example 314], the EC50 is less than 1000 nM. Regarding `O=C(NC1CC1c1ccccc1)c1ccc(-n2[nH]c3c(nnc4ccccc43)c2=O)cc1` (stereo not shown) [Example 315], the EC50 fell in the range of 1000 to 10000 nM. Turning to `CC1CCCCC1NC(=O)c1ccc(-n2[nH]c3c(nnc4ccccc43)c2=O)cc1` (stereo not shown) [Example 316], the EC50 fell in the range of 1000 to 10000 nM. On to `CC1CCCC(NC(=O)c2ccc(-n3[nH]c4c(nnc5ccccc54)c3=O)cc2)C1C` (stereo not shown) [Example 317], for which the EC50 lay within 1000 to 10000 nM. The result for `CC12CCC(C1)C(C)(C)C2NC(=O)c1ccc(-n2[nH]c3c(nnc4ccccc43)c2=O)cc1` (stereo not shown) [Example 318] reads less than 1000 nM; that for `CC(C)(C)NC(=O)c1ccc(-n2[nH]c3c(nnc4ccccc43)c2=O)cc1` [Example 319], less than 1000 nM; that for `C[Si](C)(C)CNC(=O)c1ccc(-n2[nH]c3c(nnc4ccccc43)c2=O)cc1` [Example 320], greater than 10000 nM. As for `CCCC(C)NC(=O)c1ccc(-n2[nH]c3c(nnc4ccccc43)c2=O)cc1` (stereo not shown) [Example 321], the EC50 is less than 1000 nM. Consider `CCCCC(C)NC(=O)c1ccc(-n2[nH]c3c(nnc4ccccc43)c2=O)cc1` (stereo not shown) [Example 322], for which the EC50 was less than 1000 nM. For the compound `O=C(NC1CCN(Cc2ccccc2)CC1)c1ccc(-n2[nH]c3c(nnc4c(F)cccc43)c2=O)cc1` [Example 323], the EC50 was less than 1000 nM. In the case of `CN(C)CCNC(=O)Nc1ccc(-n2[nH]c3c(nnc4c(F)cccc43)c2=O)cc1` [Example 324], the EC50 is less than 1000 nM. Turning to `O=C(NCCCCN1CCCC1)c1ccc(-n2[nH]c3c(nnc4ccc(F)cc43)c2=O)cc1` [Example 325], the EC50 was less than 1000 nM.
